Results from the supplement of paper PMC11061612.

Experiments:
786-0 (Kidney Carcinoma) = experiment: Bliss excess, mean over the matrix (fraction); higher = more synergy
Method in brief: (§1)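 Cell lines in DMEM/F12 or RPMI with 10% FBS were plated in 1536-well plates, held 24 hours at 37°C, 5% CO2, then given two-drug dose matrices for 72 hours (DMSO typically 0.2%). Viability was read by CellTiter-Glo 2.0 luminescence and scaled as inhibition from 0 (vehicle wells) to 1 (blank wells). Combination Emax is the second-highest inhibition in the matrix; Bliss excess is observed combination effect minus expected EA + EB − EA·EB, EA and EB being single-agent effects.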

[1] = test system: AsPC-1 (Pancreatic Carcinoma); experiment: as above
Method in brief: as §1

CHL-1 (Melanoma) = experiment: as above
Method in brief: as §1

[2] = test system: COLO-684 (Endometrial Carcinoma); experiment: as above
Method in brief: as §1

ES-2 (Ovarian Carcinoma) = experiment: as above
Method in brief: as §1

[3] = test system: FLO-1 (Esophageal Adenocarcinoma); experiment: as above
Method in brief: as §1

[4] = test system: HTC-C3 (Thyroid Gland Carcinoma); experiment: as above
Method in brief: as §1

[5] = test system: JHH-1 (Hepatocellular Carcinoma); experiment: as above
Method in brief: as §1

KYM-1 (Rhabdomyosarcoma) = experiment: as above
Method in brief: as §1

[6] = test system: KYSE-70 (Esophageal Squamous Cell Carcinoma); experiment: as above
Method in brief: as §1

[7] = test system: NCI-H1563 (Lung Adenocarcinoma); experiment: as above
Method in brief: as §1

[8] = test system: NCI-H810 (Non-Small Cell Lung Carcinoma); experiment: as above
Method in brief: as §1

[9] = test system: NKM-1 (Acute Myeloid Leukemia); experiment: as above
Method in brief: as §1

[10] = test system: OCI-AML5 (Acute Myeloid Leukemia); experiment: as above
Method in brief: as §1

[11] = test system: OVTOKO (Ovarian Carcinoma); experiment: as above
Method in brief: as §1

[12] = test system: RL95-2 (Endometrial Carcinoma); experiment: as above
Method in brief: as §1

[13] = test system: RPMI-8866 (Chronic Myelogenous Leukemia); experiment: as above
Method in brief: as §1

[14] = test system: SJRH30 (Rhabdomyosarcoma); experiment: as above
Method in brief: as §1

[15] = test system: CML-T1 (Chronic Myelogenous Leukemia); experiment: combination Emax (second highest fraction inhibited in the dose matrix, 72 h); higher = more inhibition; extreme values may be limits of the assay
Method in brief: as §1

[16] = test system: COLO-684 (Endometrial Carcinoma); experiment: as above
Method in brief: as §1
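Wherever Bliss excess, mean over the matrix is given: after 72 h of two-drug dosing.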

COc1cccc(OCCCN)c1-c1cc(Nc2cnc(C#N)cn2)n[nH]1 [Prexasertib] + O=C(c1cc(Cc2n[nH]c(=O)c3ccccc23)ccc1F)N1CCN(C(=O)C2CC2)CC1 [Olaparib] (first compound max 1 µM, 7x7, partner max 10 µM)
Bliss excess (786-0 (Kidney Carcinoma)): -0.0427
Bliss excess [1]: -0.0956
Bliss excess (CHL-1 (Melanoma)): -0.051
Bliss excess [2]: -0.128
Bliss excess (ES-2 (Ovarian Carcinoma)): -0.102
Bliss excess [3]: -0.0721
Bliss excess [4]: -0.0615
Bliss excess [5]: -0.0416
Bliss excess (KYM-1 (Rhabdomyosarcoma)): -0.0609
Bliss excess [6]: -0.0248
Bliss excess [7]: -0.037
Bliss excess [8]: -0.0082
Bliss excess [9]: -0.0706
Bliss excess [10]: -0.045
Bliss excess [11]: -0.035
Bliss excess [12]: -0.0343
Bliss excess [13]: 0.0028
Bliss excess [14]: -0.104
combination Emax [15]: 0.978
combination Emax [16]: 0.707

CN(CCO)CC[C@H](CSc1ccccc1)Nc1ccc(S(=O)(=O)NC(=O)c2ccc(N3CCC([C@@H](O)c4ccccc4-c4ccc(Cl)cc4)CC3)cc2)cc1S(=O)(=O)C(F)(F)F [AZD4320] + CCN(CCO)CCCOc1ccc2c(Nc3cc(CC(=O)Nc4cccc(F)c4)[nH]n3)ncnc2c1 [AZD2811] (first compound max 1 µM, 7x7, partner max 1 µM)
Bliss excess (786-0 (Kidney Carcinoma)): -0.0374
Bliss excess [1]: -0.0294
Bliss excess (CHL-1 (Melanoma)): 0.133
Bliss excess [2]: -0.0217
Bliss excess (ES-2 (Ovarian Carcinoma)): -0.0208
Bliss excess [3]: 0.0895
Bliss excess [4]: -0.0348
Bliss excess [5]: 0.0925
Bliss excess (KYM-1 (Rhabdomyosarcoma)): -0.01
Bliss excess [6]: 0.0483
Bliss excess [7]: -0.0002
Bliss excess [8]: 0.0178
Bliss excess [9]: 0.0403
Bliss excess [10]: -0.004
Bliss excess [11]: -0.0324
Bliss excess [12]: 0.119
Bliss excess [13]: 0.234
Bliss excess [14]: 0.108
combination Emax [15]: 0.994
combination Emax [16]: 0.178

NC1(C(=O)N[C@@H](CCO)c2ccc(Cl)cc2)CCN(c2ncnc3[nH]ccc23)CC1 [Capivasertib] + C[C@@H]1COCCN1C2=NC(=NC(=C2)C3(CC3)[S@](=N)(=O)C)C4=C5C=CNC5=NC=C4 [AZD6738] (first compound max 10 µM, 7x7, partner max 10 µM)
Bliss excess (786-0 (Kidney Carcinoma)): -0.0708
Bliss excess [1]: -0.0359
Bliss excess (CHL-1 (Melanoma)): -0.0329
Bliss excess [2]: -0.0262
Bliss excess (ES-2 (Ovarian Carcinoma)): -0.0716
Bliss excess [3]: -0.0933
Bliss excess [4]: -0.0323
Bliss excess [5]: -0.0294
Bliss excess (KYM-1 (Rhabdomyosarcoma)): -0.0693
Bliss excess [6]: -0.0691
Bliss excess [7]: -0.0357
Bliss excess [8]: -0.0575
Bliss excess [9]: -0.0479
Bliss excess [10]: -0.017
Bliss excess [11]: -0.0084
Bliss excess [12]: -0.0803
Bliss excess [13]: -0.0323
Bliss excess [14]: -0.0324
combination Emax [15]: 0.988
combination Emax [16]: 0.798

CC1(C)CCC(CN2CCN(c3ccc(C(=O)NS(=O)(=O)c4ccc(NCC5CCOCC5)c([N+](=O)[O-])c4)c(Oc4cnc5[nH]ccc5c4)c3)CC2)=C(c2ccc(Cl)cc2)C1 [Venetoclax] + CN(C)CCCOc1ccc(-c2ccc3ncc4c(c3c2)n(C2CCOCC2)c(=O)n4C)cn1 [AZD0156] (first compound max 1 µM, 7x7, partner max 1 µM)
Bliss excess (786-0 (Kidney Carcinoma)): -0.0327
Bliss excess [1]: -0.1
Bliss excess (CHL-1 (Melanoma)): 0.0082
Bliss excess [2]: -0.0356
Bliss excess (ES-2 (Ovarian Carcinoma)): 0.0069
Bliss excess [3]: -0.113
Bliss excess [4]: -0.0378
Bliss excess [5]: -0.042
Bliss excess (KYM-1 (Rhabdomyosarcoma)): 0.013
Bliss excess [6]: -0.0359
Bliss excess [7]: -0.0099
Bliss excess [8]: -0.0485
Bliss excess [9]: -0.0963
Bliss excess [10]: -0.0618
Bliss excess [11]: -0.086
Bliss excess [12]: -0.0027
Bliss excess [13]: -0.0408
Bliss excess [14]: 0.0084
combination Emax [15]: 0.947
combination Emax [16]: 0.211

CC1(C)CCC(CN2CCN(c3ccc(C(=O)NS(=O)(=O)c4ccc(NCC5CCOCC5)c([N+](=O)[O-])c4)c(Oc4cnc5[nH]ccc5c4)c3)CC2)=C(c2ccc(Cl)cc2)C1 [Venetoclax] + Cn1cnc2c(F)c(Nc3ccc(Br)cc3Cl)c(C(=O)NOCCO)cc21 [Selumetinib] (first compound max 1 µM, 7x7, partner max 3 µM)
Bliss excess (786-0 (Kidney Carcinoma)): -0.0347
Bliss excess [1]: -0.0748
Bliss excess (CHL-1 (Melanoma)): -0.0418
Bliss excess [2]: -0.0263
Bliss excess (ES-2 (Ovarian Carcinoma)): -0.0367
Bliss excess [3]: -0.0485
Bliss excess [4]: -0.049
Bliss excess [5]: -0.0588
Bliss excess (KYM-1 (Rhabdomyosarcoma)): -0.003
Bliss excess [6]: 0.012
Bliss excess [7]: 0.0042
Bliss excess [8]: -0.052
Bliss excess [9]: 0.0456
Bliss excess [10]: 0.111
Bliss excess [11]: -0.0544
Bliss excess [12]: -0.0313
Bliss excess [13]: -0.057
Bliss excess [14]: -0.0199
combination Emax [15]: 0.957
combination Emax [16]: 0.0813

CN(C)CCCOc1ccc(-c2ccc3ncc4c(c3c2)n(C2CCOCC2)c(=O)n4C)cn1 [AZD0156] + C[C@@H]1COCCN1C2=NC(=NC(=C2)C3(CC3)[S@](=N)(=O)C)C4=C5C=CNC5=NC=C4 [AZD6738] (first compound max 1 µM, 7x7, partner max 10 µM)
Bliss excess (786-0 (Kidney Carcinoma)): -0.0177
Bliss excess [1]: -0.0184
Bliss excess (CHL-1 (Melanoma)): 0.0023
Bliss excess [2]: -0.0496
Bliss excess (ES-2 (Ovarian Carcinoma)): -0.0217
Bliss excess [3]: 0.0005
Bliss excess [4]: 0.0193
Bliss excess [5]: 0.0102
Bliss excess (KYM-1 (Rhabdomyosarcoma)): -0.0102
Bliss excess [6]: 0.0033
Bliss excess [7]: -0.0063
Bliss excess [8]: -0.0082
Bliss excess [9]: -0.11
Bliss excess [10]: -0.0479
Bliss excess [11]: 0.0039
Bliss excess [12]: -0.0387
Bliss excess [13]: -0.0014
Bliss excess [14]: 0.0408
combination Emax [15]: 0.927
combination Emax [16]: 0.812
